From patent EP2298778A1, “IMIDAZOTHIAZOLE DERIVATIVE HAVING 4,7-DIAZASPIROÝ2.5¨OCTANE RING STRUCTURE” (Daiichi Sankyo Company, Limited, priority 2008, dated 2009)

Assay: Metabolic stability test (microsomal metabolism test)
Assay type: in vitro ADME
Conditions: pH 7.4; human-derived liver microsomes, test compound remaining after addition of NADP+ and incubation at 37°C for 30 minutes; read-out: metabolic stability of T/C%
Experimental: (Test Example 3 Metabolic stability test) 100 µL of 100 mM phosphate buffer solution (pH 7.4) containing 3 µM test compound was added to 100 µL of reaction solution containing 100 mM phosphate buffer solution (pH 7.4), 30 mM glucose 6-phosphate, 10 mM MgCl2·6H2O, 3 units/mL glucose 6-phosphate 1-dehydrogenase, and 0.3 to 1.5 mgP/mL human liver microsomes and the mixture was incubated at 37°C for 20 minutes. Then, 70 µL of 100 mM phosphate buffer solution (pH 7.4) containing 3 mM NADP^+ was added and the mixture was incubated at 37°C for 30 minutes to conduct a microsomal metabolism test. The metabolic stability was calculated according to the following formula: T/C (%) = ((concentration of test compound after addition of NADP)^+and incubation for30minutes)/((concentration of test compound before addition of NADP)^+) × 100. [formula] […]

| Structure (SMILES) | remaining at 0.5 h [%] |
| --- | --- |
| CC(C)C1=C(C(=O)N2[C@H](C)CC[C@H]2C(=O)N2C[C@H](C)NC3(CC3)C2)SC2=N[C@@](C)(c3ccc(Cl)nc3)[C@@H](c3ccc(Cl)c(F)c3)N21 [Example 19, (5S)-7-[(5R)-1-([(5R,6S)-5-(4-chloro-3-fluorophenyl)-6-(6-chloropyridin-3-yl)-3-isopropyl-6-methyl-5,6-dihydroimidazo[2,1-b][1,3]thiazol-2-yl]carbonyl}-5-methyl-L-prolyl]-5-methyl-4,7-diazaspiro[2.5]octane] | ≥ 50 |
| CC(C)C1=C(C(=O)N2[C@H](C)CC[C@H]2C(=O)N2C[C@H](C)N(C)C3(CC3)C2)SC2=N[C@@](C)(c3ccc(Cl)nc3)[C@@H](c3ccc(Cl)c(F)c3)N21 [Example 20, (5S)-7-[(5R)-1-{[(5R,6S)-5-(4-chloro-3-fluorophenyl)-6-(6-chloropyridin-3-yl)-3-isopropyl-6-methyl-5,6-dihydroimidazo[2,1-b][1,3]thiazol-2-yl]carbonyl}-5-methyl-L-prolyl]-4,5-dimethyl-4,7-diazaspiro[2.5]octane] | ≥ 50 |
| CC(C)C1=C(C(=O)N2[C@H](C)CC[C@H]2C(=O)N2CC3(CC3)N(C)C[C@@H]2C)SC2=N[C@@](C)(c3ccc(Cl)nc3)[C@@H](c3ccc(Cl)c(F)c3)N21 [Example 22, (6S)-7-[(5R)-1-{[(5R,6S)-5-(4-chloro-3-fluorophenyl)-6-(6-chloropyridin-3-yl)-3-isopropyl-6-methyl-5,6-dihydroimidazo[2,1-b][1,3]thiazol-2-yl]carbonyl}-5-methyl-L-prolyl]-4,6-dimethyl-4,7-diazaspiro[2.5]octane] | ≥ 50 |
| CC(C)C1=C(C(=O)N2[C@H](C)CC[C@H]2C(=O)N2CC3(CC3)NC[C@H]2C)SC2=N[C@@](C)(c3ccc(Cl)nc3)[C@@H](c3ccc(Cl)c(F)c3)N21 [Example 23, (6R)-7-[(5R)-1-{ [(5R,6S)-5-(4-chloro-3-fluorophenyl)-6-(6-chloropyridin-3-yl)-3-isopropyl-6-methyl-5,6-dihydroimidazo[2,1-b][1,3]thiazol-2-yl]carbonyl}-5-methyl-L-prolyl]-6-methyl-4,7-diazaspiro[2.5]octane] | ≥ 50 |
| CC(C)C1=C(C(=O)N2[C@H](C)CC[C@H]2C(=O)N2CCNC3(CC3)C2)SC2=N[C@@](C)(c3ccc(F)cc3)[C@@H](c3ccc(Cl)c(F)c3)N21 [Example 25, 7-[(5R)-1-{[(5R,6S)-5-(4-chloro-3-fluorophenyl)-6-(4-fluorophenyl)-3-isopropyl-6-methyl-5,6-dihydroimidazo[2,1-b][1,3]thiazol-2-yl]carbonyl}-5-methyl-L-prolyl]-4,7-diazaspiro[2.5]octane] | ≥ 50 |
| CC(C)C1=C(C(=O)N2[C@H](C)CC[C@H]2C(=O)N2CCNC3(CC3)C2)SC2=N[C@@](C)(c3ccc(Cl)nc3)[C@@H](c3ccc(F)c(Cl)c3)N21 [Example 26, 7-[(5R)-1-{[(5R,6S)-5-(3-chloro-4-fluorophenyl)-6-(6-chloropyridin-3-yl)-3-isopropyl-6-methyl-5,6-dihydroimidazo[2,1-b][1,3]thiazol-2-yl]carbonyl}-5-methyl-L-prolyl]-4,7-diazaspiro[2.5]octane] | ≥ 50 |
| CC(C)C1=C(C(=O)N2[C@H](C)CC[C@H]2C(=O)N2CCNC3(CC3)C2)SC2=N[C@@](C)(c3ccc(Cl)nc3)[C@@H](c3ccc(Cl)c(Cl)c3)N21 [Example 31, 7-[(5R)-1-{[(5R,6S)-6-(6-chloropyridin-3-yl)-5-(3,4-dichlorophenyl)-3-isopropyl-6-methyl-5,6-dihydroimidazo[2,1-b][1,3]thiazol-2-yl]carbonyl}-5-methyl-L-prolyl]-4,7-diazaspiro [2.5] octane] | ≥ 50 |
| CC[C@@H]1CC[C@@H](C(=O)N2CCNC3(CC3)C2)N1C(=O)C1=C(C(C)C)N2C(=N[C@@](C)(c3ccc(Cl)nc3)[C@H]2c2ccc(Cl)c(F)c2)S1 [Example 32, 7-[(5R)-1-{[(5R,6S)-5-(4-chloro-3-fluorophenyl)-6-(6-chloropyridin-3-yl)-3-isopropyl-6-methyl-5,6-dihydroimidazo[2,1-b][1,3]thiazol-2-yl]carbonyl}-5-ethyl-L-prolyl]-4,7-diazaspiro[2.5]octane] | ≥ 50 |
| CC(C)C1=C(C(=O)N2[C@H](CF)CC[C@H]2C(=O)N2CCNC3(CC3)C2)SC2=N[C@@](C)(c3ccc(Cl)cc3)[C@@H](c3ccc(Cl)cc3)N21 [Example 38, 7-[(5S)-1-{[(5R,6S)-5,6-bis(4-chlorophenyl)-3-isopropyl-6-methyl-5,6-dihydroimidazo[2,1-b][1,3]thiazol-2-yl]carbonyl}-5-(fluoromethyl)-L-prolyl]-4,7-diazaspiro[2.5]octane] | ≥ 50 |
| CC(C)C1=C(C(=O)N2[C@H](CF)CC[C@H]2C(=O)N2CCN(C)C3(CC3)C2)SC2=N[C@@](C)(c3ccc(Cl)cc3)[C@@H](c3ccc(Cl)cc3)N21 [Example 39, 7-[(5S)-1-{[(5R,6S)-5,6-bis(4-chlorophenyl)-3-isopropyl-6-methyl-5,6-dihydroimidazo[2,1-b][1,3]thiazol-2-yl]carbonyl}-5-(fluoromethyl)-L-prolyl]-4-methyl-4,7-diazaspiro[2.5]octane] | ≥ 50 |

Further lines, results first:

| remaining at 0.5 h [%] | Structure (SMILES) |
| --- | --- |
| ≥ 50 | CC(C)C1=C(C(=O)N2[C@H](C)CC[C@H]2C(=O)N2C[C@@H](C)N(C)C3(CC3)C2)SC2=N[C@@](C)(c3ccc(Cl)nc3)[C@@H](c3ccc(Cl)c(F)c3)N21 [Example 18, (5R)-7-[(5R)-1-{[(5R,6S)-5-(4-chloro-3-fluorophenyl)-6-(6-chloropyridin-3-yl)-3-isopropyl-6-methyl-5,6-dihydroimidazo[2,1-b][1,3]thiazol-2-yl]carbonyl}-5-methyl-L-prolyl]-4,5-dimethyl-4,7-diazaspiro[2.5]octane] |
| ≥ 50 | CC(C)C1=C(C(=O)N2[C@H](C)CC[C@H]2C(=O)N2CC3(CC3)NC[C@@H]2C)SC2=N[C@@](C)(c3ccc(Cl)nc3)[C@@H](c3ccc(Cl)c(F)c3)N21 [Example 21, (6S)-7-[(5R)-1-{[(5R,6S)-5-(4-chloro-3-fluorophenyl)-6-(6-chloropyridin-3-yl)-3-isopropyl-6-methyl-5,6-dihydroimidazo[2,1-b][1,3]thiazol-2-yl]carbonyl}-5-methyl-L-prolyl]-6-methyl-4,7-diazaspiro[2.5]octane] |
| ≥ 50 | CC(C)C1=C(C(=O)N2[C@H](C)CC[C@H]2C(=O)N2CC3(CC3)N(C)C[C@H]2C)SC2=N[C@@](C)(c3ccc(Cl)nc3)[C@@H](c3ccc(Cl)c(F)c3)N21 [Example 24, (6R)-7-[(5R)-1-{[(5R,6S)-5-(4-chloro-3-fluorophenyl)-6-(6-chloropyridin-3-yl)-3-isopropyl-6-methyl-5,6-dihydroimidazo[2,1-b][1,3]thiazol-2-yl]carbonyl}-5-methyl-L-prolyl]-4,6-dimethyl-4,7-diazaspiro[2.5]octane] |
| ≥ 50 | CC(C)C1=C(C(=O)N2[C@H](C)CC[C@H]2C(=O)N2CCNC3(CC3)C2)SC2=N[C@@](C)(c3ccc(Cl)c(N)c3)[C@@H](c3ccc(Cl)c(F)c3)N21 [Example 27, 2-chloro-5-[(5R,6S)-5-(4-chloro-3-fluorophenyl)-2-{[(2S,5R)-2-(4,7-diazaspiro[2.5]oct-7-ylcarbonyl)-5-methylpyrrolidin-1-yl]carbonyl}-3-isopropyl-6-methyl-5,6-dihydroimidazo[2,1-b][1,3]thiazol-6-yl]aniline] |
| ≥ 50 | CC(C)C1=C(C(=O)N2[C@H](C)CC[C@H]2C(=O)N2CCNC3(CC3)C2)SC2=N[C@@](C)(c3ccc(C#N)cc3)[C@@H](c3ccc(Cl)cc3)N21 [Example 28, 4-[(5R,6S)-5-(4-chlorophenyl)-2-{[(2S,5R)-2-(4,7-diazaspiro[2.5]oct-7-ylcarbonyl)-5-methylpyrrolidin-1-yl]carbonyl}-3-isopropyl-6-methyl-5,6-dihydroimidazo[2,1-b][1,3]thiazol-6-yl]benzonitrile] |
| ≥ 50 | CC(C)C1=C(C(=O)N2[C@H](C)CC[C@H]2C(=O)N2CCNC3(CC3)C2)SC2=N[C@@](C)(c3ccc(C#N)cc3)[C@@H](c3ccc(Cl)c(F)c3)N21 [Example 30, 4-[(5R,6S)-5-(4-chloro-3-fluorophenyl)-2-{[(2S,5R)-2-(4,7-diazaspiro[2.5]oct-7-ylcarbonyl)-5-methylpyrrolidin-1-yl]carbonyl}-3-isopropyl-6-methyl-5,6-dihydroimidazo[2,1-b][1,3]thiazol-6-yl]benzonitrile] |
| ≥ 50 | CC[C@@H]1CC[C@@H](C(=O)N2CCN(C)C3(CC3)C2)N1C(=O)C1=C(C(C)C)N2C(=N[C@@](C)(c3ccc(Cl)nc3)[C@H]2c2ccc(Cl)c(F)c2)S1 [Example 33, 7-[(5R)-1-{[(5R,6S)-5-(4-chloro-3-fluorophenyl)-6-(6-chloropyridin-3-yl)-3-isopropyl-6-methyl-5,6-dihydroimidazo[2,1-b][1,3]thiazol-2-yl]carbonyl}-5-ethyl-L-prolyl]-4-methyl-4,7-diazaspiro[2.5]octane] |
| ≥ 50 | CC(C)C1=C(C(=O)N2[C@H](CF)CC[C@H]2C(=O)N2CCNC3(CC3)C2)SC2=N[C@@](C)(c3ccc(Cl)nc3)[C@@H](c3ccc(Cl)c(F)c3)N21 [Example 40, 7-[(5S)-1-{[(5R,6S)-5-(4-chloro-3-fluorophenyl)-6-(6-chloropyridin-3-yl)-3-isopropyl-6-methyl-5,6-dihydroimidazo[2,1-b][1,3]thiazol-2-yl]carbonyl}-5-(fluoromethyl)-L-prolyl]-4,7-diazaspiro[2.5]octane] |
